Measurements published in patent US20070128217A1 (priority 2003, published 2007).

How the values were obtained:
[1] = test system: antibodies in sera from SARS patients (sera 1a, 1b, 2, 6, 37, 62, London, SARS-yellow, SARS-green); assay type: binding, human; parameters: Binding of serum 6 to linear peptides of protein X1 of SARS-CoV Urbani / Binding of serum 37 to linear peptides of protein X1 of SARS-CoV Urbani / Binding of serum 6 to looped/cyclic peptide (PEPSCAN-ELISA) / Binding of serum 37 to looped/cyclic peptide (PEPSCAN-ELISA) / Binding of serum 37 to looped/cyclic peptides of protein X1 of SARS-CoV Urbani / Binding of serum 6 to linear peptides of protein X2 / Binding of serum 37 to linear peptides of protein X2 / Binding of serum 37 to looped/cyclic peptides of protein X2 of SARS-CoV Urbani / Binding of serum 6 to linear peptides of protein M of SARS-CoV Urbani / Binding of serum 37 to linear peptides of protein M of SARS-CoV Urbani / Binding of serum 6 to looped/cyclic peptides of protein M of SARS-CoV Urbani / Binding of serum 37 to looped/cyclic peptides of protein M of SARS-CoV Urbani / Binding of serum 6 to linear peptides of protein X3 of SARS-CoV Urbani / Binding of serum 37 to linear peptides of protein X3 of SARS-CoV Urbani / Binding of serum 37 to looped/cyclic peptides of protein X3 of SARS-CoV Urbani / Binding of serum 6 to linear peptides of protein X4 of SARS-CoV Urbani / Binding of serum 37 to linear peptides of protein X4 of SARS-CoV Urbani / Binding of serum 37 to looped/cyclic peptides of protein X4 of SARS-CoV Urbani / Binding of serum 6 to linear peptides of protein X5 of SARS-CoV Urbani / Binding of serum 37 to linear peptides of protein X5 of SARS-CoV Urbani / Binding of serum 37 to looped/cyclic peptides of protein X5 of SARS-CoV Urbani / Binding of serum 6 to linear peptides of protein N of SARS-CoV Urbani / Binding of serum 37 to linear peptides of protein N of SARS-CoV Urbani / Binding of serum 6 to linear peptide (PEPSCAN-ELISA) / Binding of serum 1a to looped/cyclic peptides of protein N of SARS-CoV Urbani / Binding of serum 1b to looped/cyclic peptides of protein N of SARS-CoV Urbani / Binding of serum 2 to looped/cyclic peptides of protein N of SARS-CoV Urbani / Binding of serum 6 to looped/cyclic peptides of protein N of SARS-CoV Urbani / Binding of serum 37 to looped/cyclic peptides of protein N of SARS-CoV Urbani / Binding of serum 62 to looped/cyclic peptides of protein N of SARS-CoV Urbani / Binding of serum London to looped/cyclic peptides of protein N of SARS-CoV Urbani / Binding of serum SARS-green to looped/cyclic peptides of protein N of SARS-CoV Urbani: unit not given here
[2] = test system: control sera (pooled serum of ten healthy LUMC hospital workers; commercial negative donor pooled serum from the Dutch bloodbank); assay type: binding, human; parameters: Binding of Control serum LUMC to linear peptides / Binding of Control serum Blood-bank to linear peptides / Binding of Control serum LUMC to looped peptides / Binding of Control Serum Blood-Bank to Looped peptides / Binding of Control serum LUMC to linear peptides of the protein M of SARS-CoV Urbani / Binding of Control serum Blood-bank to linear peptides of the protein M of SARS-CoV Urbani / Binding of Control serum LUMC to looped peptides of the protein M of SARS-CoV Urbani / Binding of Control Serum Blood-Bank to Looped peptides of the protein M of SARS-CoV Urbani: unit not given here
[3] = test system: rabbit serum obtained by immunizing a rabbit with the SARS-CoV strain Frankfurt 1; assay type: binding; parameters: Binding of a rabbit serum to linear peptides / Binding of a rabbit serum to looped peptides / Rabbit serum linear peptides / Rabbit serum looped peptides / Binding of a rabbit serum to linear peptides of protein N of SARS-CoV Urbani (Rabbit serum linear peptides) / Binding of a rabbit serum to looped/cyclic peptides of protein N of SARS-CoV Urbani (Rabbit serum looped peptides): unit not given here
[4] = test system: recombinant human anti-SARS-CoV antibody 03-018; assay type: binding; parameters: Binding of antibody 03-018 to linear peptides of the N protein of SARS-CoV Urbani / Binding of antibody 03-018 to looped/cyclic peptides of the N protein of SARS-CoV Urbani: unit not given here
[5] = target: SARS-CoV preparation (Frankfurt 1 strain) (SARS-CoV strain Frankfurt 1)

In the case of PYGANKEGIVWVATE, the “Binding of serum 1a to linear peptides of protein N of SARS-CoV Urbani” value [1] is reported as 0.3, the “Binding of serum 1a to looped/cyclic peptides of protein N of SARS-CoV Urbani” value [1] is reported as 0.4 and the “Binding of serum 1b to linear peptides of protein N of SARS-CoV Urbani” value [1] is reported as 0.2. For the same molecule, the “Binding of serum 1b to looped/cyclic peptides of protein N of SARS-CoV Urbani” value [1] was 0.3, the “Binding of serum 2 to linear peptides of protein N of SARS-CoV Urbani” value [1] was 0.2 and the “Binding of serum 2 to looped/cyclic peptides of protein N of SARS-CoV Urbani” value [1] was 0.5. The “Binding of serum 6 to linear peptides of protein N of SARS-CoV Urbani” value [1] was 0.2, the “Binding of serum 6 to looped/cyclic peptides of protein N of SARS-CoV Urbani” value [1] was 0.3 and the “Binding of serum 37 to linear peptides of protein N of SARS-CoV Urbani” value [1] was 1.0. For the same molecule, the “Binding of serum 37 to looped/cyclic peptides of protein N of SARS-CoV Urbani” value [1] was 0.9, the “Binding of serum 62 to linear peptides of protein N of SARS-CoV Urbani” value [1] was 0.8 and the “Binding of serum 62 to looped/cyclic peptides of protein N of SARS-CoV Urbani” value [1] was 0.9. The “Binding of serum London to linear peptides of protein N of SARS-CoV Urbani” value [1] was 0.7, the “Binding of serum London to looped/cyclic peptides of protein N of SARS-CoV Urbani” value [1] was 0.5 and the “Binding of serum SARS-green to linear peptides of protein N of SARS-CoV Urbani” value [1] was 0.8. For the same molecule, the “Binding of serum SARS-green to looped/cyclic peptides of protein N of SARS-CoV Urbani” value [1] was 0.8, the “Binding of serum SARS-yellow to linear peptides of protein N of SARS-CoV Urbani” value [1] was 0.6 and the “Binding of serum SARS-yellow to looped/cyclic peptides of protein N of SARS-CoV Urbani” value [1] was 0.7. For the same molecule, the “Binding of Control Serum Blood-Bank to Looped peptides” value [2] was 0.6, the “Binding of Control serum Blood-bank to linear peptides” value [2] was 0.7 and the “Binding of Control serum LUMC to linear peptides” value [2] was 0.7. The “Binding of Control serum LUMC to looped peptides” value [2] was 0.7, the “Binding of a rabbit serum to linear peptides of protein N of SARS-CoV Urbani (Rabbit serum linear peptides)” value [3] was 0.2 and the “Binding of a rabbit serum to looped/cyclic peptides of protein N of SARS-CoV Urbani (Rabbit serum looped peptides)” value [3] was 0.2. For the same molecule, the “Binding of antibody 03-018 to linear peptides of the N protein of SARS-CoV Urbani” value [4] was 0.1 and the “Binding of antibody 03-018 to looped/cyclic peptides of the N protein of SARS-CoV Urbani” value [4] was 0.2.

B1: SC03-006 (scFv)
scFv: SMAEVQLVESGGGLVQPGGSLRLSCAASGFTFSGYPMHWVRQAPGKGLEWVAVISYDGSNKYYADSVKGRFTISRDNSKNTLYLQMNSLRAEDTAVYYCAKDGSPRTPSFDYWGQGTLVTVLEGTGGSGGTGSGTGTSELDIQMTQSPHSLSASVGDRVTITCRASQGISNYLAWYQQKPGKVPKLLIYAASTLQSGVPSRFSGSGSGTDFTLTISSLQPEDVGVYYCQQRFRTPVTFGQGTKLEIKRAAA
For B1, the OD492nm [5] was 1.06 OD492nm.

B2: SC03-015 (scFv)
scFv: AMAEVQLVESGGGVVRPGGSLRLSCAASGFTFDDYGMSWVRQAPGKGLEWVSGINWNGGSTGYADSVKGRFTISRDNAKNSLYLQMNSLRAEDTAVYYCARGLSLRPWGQGTLVTVSRGGGGSGGGGSGGGGSSELTQDPAVSVALGQTVRITCQGDSLRSYYASWYQQKPGQAPVLVIYGKNNRPSGIPDRFSGSSSGNTASLTITGAQAEDEADYYCNSRDSSGNHVVFGGGTKLTVLGAAA
B2 gave an OD492nm [5] of 0.796 OD492nm.
